Laboratory results published in patent publication US11118208B2, “Methods for modulating protein galactosylation profiles of recombinant proteins using peracetyl galactose” (ARES TRADING S.A., priority 2016, dated 2021).
Several values for one entry are separate records, joined by “and”; a condition that tells them apart may be missing. Identical values can stand only once.

Legend:
Type in all cases: cell-based, Chinese hamster
[1] = tested on: mAb2 cells (CHO-Ki cells expressing IgG1 mAb2); assay: Fed-batch culture of mAb2 cells in TubeSpin: viable cell density, viability, titer
Protocol: (§1) Additional assays were performed with another antibody also produced in another CHO cell line: CHO-Ki cells expressing IgG1 mAb2, herein “Cells mAb2” or “mAb2 cells”. “mAb2” is a humanized monoclonal antibody directed against a receptor found on the cell membrane. Its isoelectric point (pI) is about 9.30.
(§2) Cells expressing mAb1 were inoculated at 0.3×10^6 cells per millilitre (mL), whereas Cells expressing mAb2 were inoculated at 0.2×10^6 cells per millilitre (mL).
(§3) For examples 1-3: A serum-free chemically defined culture medium was used. It was used as it is, or it was supplemented with α- or β-2-F-peracetyl galactose (herein α- or β-2F-pGal; Biosynth & AX Molecules) at different concentrations (0-200 μM before seeding). The concentrations indicated on FIGS. 1, 2, 3 and 4 are the concentrations in α- or β-2F-pGal in the culture medium at day 0, just before the inoculation. The culture medium was fed, on a regular basis, with a chemically defined feed medium, as well as with glucose in order to keep said glucose level in the range of >0 to about 8 g/L (feeds are done at days 3, 5, 7, 10 and 12).
(§4) The cultures were performed in deepwell plates (DWP) with a working volume of 450 μL. They were incubated at 36.5° C., 5% de CO2, 90% humidity and shaken at 320 rpm. Each of the fed-batch culture lasted 14 days. It is well known that experiments in DWP are artificial, although they allow a first screening of culture conditions. In order to confirm that the results obtained in DWP were reproducible at higher scale, similar experiments were also run in TubeSpin® (also called herein shake tubes or ST), with a working volume of 30 mL cell culture (same culture condition than for deepwell plates).
(§5) For TubeSpin® experiments, viable cell density and viability were measured with the ViCell®. Antibody titers were measured using Biacore®.

[2] = tested on: galactosylation of mAb1 antibody (mAb1 cells); assay: Glycosylation profile of mAb1 produced in TubeSpin (CGE-LIF); details: for monogalactosylated form changed by (Example 2.2) / total level of galactosylation decreased by (Example 2.2): shake tubes, CGE-LIF
Protocol: (§6) First assays were performed with an antibody produced in a CHO cell line: CHO-S cells expressing IgG1 mAb1, herein “Cells mAb1” or “mAb1 cells”. “mAb1” is a fully human monoclonal antibody directed against a soluble protein. Its isoelectric point (pI) is about 8.20-8.30.
as §3, §4
(§7) Glycosylation profiles were established by capillary gel electrophoresis with laser-induced fluorescence (CGE-LIF; for DWP and for Shake tubes experiments) or by Ultra Performance Liquid Chromatography-2-amino-benzamide labelling technique (2AB-UPLC; for Shake tubes experiments). Groups of glycans were defined as thereafter in Table 3.

[3] = tested on: mAb1 cells (CHO-S cells expressing IgG1 mAb1); assay: Fed-batch culture of mAb1 cells in TubeSpin (shake tubes): viable cell density, viability, titer
Protocol: as §6, §2, §3, §4, §5

[4] = tested on: galactosylation of mAb1 antibody (mAb1 cells); assay: Glycosylation profile of mAb1 produced in DWP (CGE-LIF)
Protocol: as §6, §3, §4, §7
(§8) The cells were cultivated and the results analysed as disclosed in the material and method section. It is noted that the controls (or control conditions) according to the present invention correspond to cells grown without peracetyl galactose.

[5] = tested on: mAb1 cells (CHO-S cells expressing IgG1 mAb1); assay: Fed-batch culture of mAb1 cells in deepwell plates (DWP): viable cell density, viability, titer
Protocol: as §6, §2, §3, §4
For DWP experiments, viable cell density and viability were measured with the Guava easyCyte® flow cytometer. Antibody titers were measured with the fortéBIO Octet®.
as §8

[6] = tested on: galactosylation of mAb2 antibody (mAb2 cells); assay: Glycosylation profile of mAb2 produced in TubeSpin (2AB-UPLC)
Protocol: as §1, §3, §4, §7

CC(=O)OC[C@H]1OC(OC(C)=O)[C@H](F)[C@@H](OC(C)=O)[C@H]1OC(C)=O (stereo in doubt) [α-2F-pGal, α/β-D-galactopyranose, 2-deoxy-2-fluoro-,1,3,4,6-tetraacetate]
titer at day 7 ([1]; 30 μM): ~720 mg/L
titer at day 14 ([1]; 30 μM): 3400 to 3420 mg/L
titer at day 7 ([1]; 60 μM): ~720 mg/L
titer at day 14 ([1]; 60 μM): 3400 to 3420 mg/L
titer at day 7 ([1]; 90 μM): about 670 mg/L
titer at day 14 ([1]; 90 μM): ~3200 mg/L
peak viable cell density ([1]; 90 μM, shake tubes): 10.0 ×106 viable cells/mL
productivity ([1]; 30 and 60 μM): globally unchanged
overall viable cell densities compared to the control ([1]; 30 and 60 μM, shake tubes): comparable to the control
cell viability at day 7 ([1]; entire supplement concentration range): about 97%
viabilities compared to the control condition ([1]; entire supplement concentration range (30-90 μM)): comparable to the control condition
G1F absolute change compared to the control ([2]; 30 μM, TubeSpin): 1.9%
G2F absolute change compared to the control ([2]; 30 μM, TubeSpin): 0.11%
relative decrease of galactosylated N-oligosaccharides compared to control ([2]; 30 μM, TubeSpin): about 16%
monogalactosylated form changed by (Example 2.2) ([2]; 30 μM): −1.9%
total level of galactosylation decreased by (Example 2.2) ([2]; 30 μM): 2.0%
G1F absolute change compared to the control ([2]; 60 μM, TubeSpin): 4.3%
G2F absolute change compared to the control ([2]; 60 μM, TubeSpin): 0.27%
absolute change of galactosylated N-oligosaccharides compared to the control ([2]; 60 μM, TubeSpin): 4.61% and ~4.5%
relative decrease of galactosylated N-oligosaccharides compared to control ([2]; 60 μM, TubeSpin): ~37%
total level of galactosylation decreased by (Example 2.2) ([2]; 60 μM): 4.6%
monogalactosylated form changed by (Example 2.2) ([2]; 60 μM, listed as α-2F-peracetyl-galactose): −4.3%
G1F absolute change compared to the control ([2]; 90 μM, TubeSpin): 4.3%
G2F absolute change compared to the control ([2]; 90 μM, TubeSpin): 0.33%
relative decrease of galactosylated N-oligosaccharides compared to control ([2]; 90 μM, TubeSpin): ~36%
monogalactosylated form changed by (Example 2.2) ([2]; 90 μM): −4.3%
total level of galactosylation decreased by (Example 2.2) ([2]; 90 μM): −4.5%
product titer at the end of the culture (day 14) ([3]; 30 μM, shake tubes): 2050 mg/L
product titer at the end of the culture (day 14) ([3]; 60 μM, shake tubes, listed as α-2F-p-galactose): 2130 mg/L
product titer at the end of the culture (day 14) ([3]; 90 μM, shake tubes): 2225 mg/L
growth inhibitory effect in the first part of the culture ([3]; 30, 60 and 90 μM, shake tubes): no growth inhibitory effect
cell densities compared to control from day 10 until the end of the culture ([3]; 30 and 90 μM, shake tubes): slightly lower
impact on cell growth or protein titer until the end of culture ([3]; any one of 30, 60 and 90 μM, TubeSpin): no negative impact on cell growth or protein titer
effect on cell culture performance ([3]; between 0 and 90 μM α-2F-p-galactose, 60 μM β-2F-p-galactose, shake tubes): No detrimental effect
protein titer compared to the control at culture days 5, 7, 10, 12 and 14 ([3]; α 30-90 μM, β 60 μM, shake tubes, listed as α-2F-p-galactose): comparable at all time points
G1F absolute change compared to the control ([4]; 30 μM): 1.1%
G2F absolute change compared to the control ([4]; 30 μM): 0.2%
absolute change in galactosylated N-oligosaccharide compared to the control ([4]; 30 μM): 1.3%
relative decrease of galactosylated N-oligosaccharides compared to control ([4]; 30 μM): 17%
galactosylated N-oligosaccharides of the protein ([4]; 30 μM in medium): 8.3%
G1F absolute change compared to the control ([4]; 60 μM): 2.5%
G2F absolute change compared to the control ([4]; 60 μM): 0.3%
absolute change in galactosylated N-oligosaccharide compared to the control ([4]; 60 μM): 2.8%
relative decrease of galactosylated N-oligosaccharides compared to control ([4]; 60 μM): 32%
galactosylated N-oligosaccharides of the protein ([4]; 60 μM in medium): 6.8%
G1F absolute change compared to the control ([4]; 120 μM): 3.1%
G2F absolute change compared to the control ([4]; 120 μM): 0.35%
absolute change in galactosylated N-oligosaccharide compared to the control ([4]; 120 μM): 3.5%
relative decrease of galactosylated N-oligosaccharides compared to control ([4]; 120 μM): 40%
galactosylated N-oligosaccharides of the protein ([4]; 120 μM in medium): 6.0%
G1F absolute change compared to the control ([4]; 200 μM): 4.4%
G2F absolute change compared to the control ([4]; 200 μM): 0.4%
absolute change in galactosylated N-oligosaccharide compared to the control ([4]; 200 μM): 4.8%
relative decrease of galactosylated N-oligosaccharides compared to control ([4]; 200 μM): 52%
galactosylated N-oligosaccharides of the protein ([4]; 200 μM in medium): 4.8%
inhibition effect on galactosylation ([4]; below 30): neither α- or β-2F-pGal does have a significant inhibition effect on galactosylation
inhibition effect on galactosylation ([4]; concentrations higher than 30 μM): a significant inhibition effect is observed
decrease of titers comparing to control ([5]; concentration higher than 60 μM): about 1.2 factor
impact on protein titre ([5]; concentrations between 30 and 60): no impact on protein titre
impact on cell growth ([5]; concentrations of about 60 μM and higher): negative impact on cell growth
impact on cell growth until the end of culture ([5]; concentrations up to 30 μM in medium): no impact on cell growth
protein titer compared to the control ([5]; media concentration up to 60 μM, day 10 and day 14): stays above the protein titer of the control
impact on cell density, cell viability and protein titer ([5]; media concentrations below 30 μM): do not impact
effect on the overall fucosylated species [6]: +0.5%
FA2G1 decrease (absolute change) ([6]; 30 μM): −0.85%
change of the FA2G2 abundance ([6]; 30 μM): −0.09%
reduction of galactosylation (absolute change) ([6]; 30 μM): −0.95%
FA2G1 decrease (absolute change) ([6]; 60 μM): −1.85%
change of the FA2G2 abundance ([6]; 60 μM): −0.19%
reduction of galactosylation (absolute change) ([6]; 60 μM): −2.05%
FA2G1 decrease (absolute change) ([6]; 90 μM): −1.2%
change of the FA2G2 abundance ([6]; 90 μM): −0.19%
reduction of galactosylation (absolute change) ([6]; 90 μM): −1.4%
